By EC50 is commonly meant the concentration needed to bring the measured effect to its halfway point.

The text below walks through data of ChEMBL document CHEMBL3886637, “Pyridine-2-amides useful as CB2 agonists” (2016).

One assay concerns the target Cannabinoid receptor 2 (Homo sapiens, UniProt P34972). Nature of the assay: (§1) cAMP Assay: CHO cells expressing human CB1 or CB2 receptors are seeded 17-24 hours prior to the experiment 50.000 cells per well in a black 96 well plate with flat clear bottom (Corning Costar #3904) in DMEM (Invitrogen No. 31331), 1×HT supplement, with 10% fetal calf serum and incubated at 5% CO2 and 37 °C. in a humidified incubator. The growth medium was exchanged with Krebs Ringer Bicarbonate buffer with 1 mM IBMX and incubated at 30 °C. for 30 min. Compounds were added to a final assay volume of 100 μl and incubated for 30 min at 30 °C. Using the cAMP-Nano-TRF detection kit the assay (Roche Diagnostics) was stopped by the addition of 50 μl lysis reagent (Tris, NaCl, 1.5% Triton X100, 2.5% NP40, 10% NaN3) and 50 μl detection solutions (20 μM mAb Alexa700-cAMP 1:1, and 48 μM Ruthenium-2-AHA-cAMP) and shaken for 2 h at room temperature. The time-resolved energy transfer is measured by a TRF reader (Evotec Technologies GmbH), equipped with a ND:YAG laser as excitation source. The plate is measured twice with the excitation at 355 nm and at the emission with a delay of 100 ns and a gate of 100 ns, total exposure time 10 s at 730 (bandwidth 30 nm) or 645 nm (bandwidth 75 nm), respectively. The FRET signal is calculated as follows: FRET=T730-Alexa730-P(T645-B645) with P=Ru730-B730/Ru645-B645, where T730 is the test well measured at 730 nM, T645 is the test well measured at 645 nm, B730 and B645 are the buffer controls at 730 nm and 645 nm, respectively. cAMP content is determined from the function of a standard curve spanning from 10 μM to 0.13 nM cAMP. It is filed as functional, cell-based.

A further assay deals with Cannabinoid receptor 1 (Homo sapiens, UniProt P21554). The description is as §1. It is filed as functional, cell-based.
Sequence of Cannabinoid receptor 1 (P21554 whole entry): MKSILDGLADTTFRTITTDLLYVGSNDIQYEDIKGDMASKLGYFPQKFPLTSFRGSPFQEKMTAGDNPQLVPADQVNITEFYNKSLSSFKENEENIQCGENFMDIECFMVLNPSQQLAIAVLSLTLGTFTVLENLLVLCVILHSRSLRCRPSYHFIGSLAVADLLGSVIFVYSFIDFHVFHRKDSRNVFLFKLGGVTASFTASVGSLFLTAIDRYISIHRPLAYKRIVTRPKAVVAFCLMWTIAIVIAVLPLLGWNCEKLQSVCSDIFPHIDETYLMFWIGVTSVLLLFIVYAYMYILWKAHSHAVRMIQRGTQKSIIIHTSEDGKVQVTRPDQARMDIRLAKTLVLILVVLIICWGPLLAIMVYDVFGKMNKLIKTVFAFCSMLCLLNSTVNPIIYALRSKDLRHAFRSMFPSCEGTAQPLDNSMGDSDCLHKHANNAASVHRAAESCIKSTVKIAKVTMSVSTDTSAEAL

Sequence of Cannabinoid receptor 2 (P34972 whole entry): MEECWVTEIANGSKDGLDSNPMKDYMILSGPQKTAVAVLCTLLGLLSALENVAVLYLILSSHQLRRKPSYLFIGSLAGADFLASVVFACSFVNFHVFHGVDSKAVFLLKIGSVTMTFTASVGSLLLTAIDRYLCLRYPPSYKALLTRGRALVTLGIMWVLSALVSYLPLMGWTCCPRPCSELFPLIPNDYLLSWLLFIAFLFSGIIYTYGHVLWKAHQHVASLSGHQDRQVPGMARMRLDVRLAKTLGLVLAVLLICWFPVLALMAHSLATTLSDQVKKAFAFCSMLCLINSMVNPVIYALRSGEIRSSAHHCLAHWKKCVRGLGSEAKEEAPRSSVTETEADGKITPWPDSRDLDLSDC

In the case of `CC1(C)CC(C(N)=O)N(C(=O)c2ccc(N3CC(F)(F)C3)c(OCC3CC3)n2)C1` (stereo not drawn), the EC50 at Cannabinoid receptor 2 was 0.0066 µM.
Regarding `CC(C)N(C(=O)c1ccc(N2CC(F)(F)C2)c(OCC2CC2)n1)C(C)C`, the 50% effective concentration (EC50) is 0.0126 µM on Cannabinoid receptor 2 and more than 10 µM at Cannabinoid receptor 1.
